Reference: US11759480B2, “Compositions and methods for CAR T cell therapy” (ENDOCYTE, INC., priority 2017, dated 2023)
Read-outs that look alike come from different tables or passages of the source.

Assays:
MDA-MB-231 tumors [1] = assay type: in vivo, NSG mice
Method: MDA-MB-231 tumors were generated by subcutaneous implantation of cultured cells at 2×10^6 in NSG mice.
FITC-CAR-T cells were prepared as described previously. After culturing in-vitro for 12-20 days, they were frozen and stored at −80° C. in a freezing reagent containing 50% heat-inactivated AB+ human serum, 40% T cell culture media, and 10% DMSO. Frozen CAR-T cells were quickly thawed at 37° C., washed twice with PBS, and used for animal injection.
In general, EC17/CAR-T therapy initiated when mouse tumors reached ˜200-250 mm^3 and weekly EC17 doses at 500 nmol/kg started 2 days after the CAR-T administration. All EC17 doses were given towards the end of day (˜3-4 PM) to allow cytokine release syndrome (CRS) to develop overnight. Sodium fluorescein rescue at various doses (0.06-60 μmol/kg) was administrated after the first dose of EC17, when the animals experienced a severe CRS of grade 3-4 on a 0-5 grading scale (FIG. 31). Plasma samples at various time points (3-27 hours) post sodium fluorescein rescue were collected for multiplex cytokine analysis.
Approximately 48 hours after CAR-T cell infusion, mice were separated into 3 groups. The first group (#1) was not dosed with EC17 and served as the CAR-T cell control, the second (#2) and the third (#3) groups were intravenously injected with a single dose of EC17 (500 nmol/kg). […] Group #2 then received a single intravenous sodium fluorescein (60 μmol/kg) while group #3 was left un-rescued. […] Three satellite animals from each group were euthanized to collect blood and organs for cytokine analysis and organ toxicity evaluation. Whole blood was obtained via cardiac puncture and collected into EDTA containing tubes. Twenty-seven hours after sodium fluorescein rescue, mice rescued with 60 μmol/kg sodium fluorescein in group #2 were recovering and sCRS scale decreased to grade 2, while mice without rescue in group #3 had worse sCRS (grade 3-4). At this time, 6 satellite mice from each group were euthanized for blood collection and organ evaluation. The remaining mice were dosed with a single dose of 500 nmol/kg EC17 every week if desired, and the EC17 dosing dates were labeled in FIG. 36 as dashed vertical lines occurring after the notation “EC17”. Tumor volume and body weight changes were monitored 2-3 times per week.
To evaluate whether a lower level of sodium fluorescein can also rescue mice under sCRS, the same rescue study was performed except that sodium fluorescein was dosed at 0.06, 0.6, and 6 μmol/kg.

FR+ MDA-MB-231 tumors = test: FITC-CAR-T toxicity and spleen size in MDA-MB-231 s.c. model (Example 37); assay type: in vivo, mice
Method: The evaluation of FITC-CAR-T proliferation and related toxicity in both naïve mice and mice bearing FR+ tumor xenografts was tested. To evaluate whether FITC-CAR-T proliferation in vivo is dependent on the co-existence of the bridge (e.g. EC17) and the tumor antigen (e.g. folate receptor), FITC-CAR-T proliferation in vivo was compared in naïve mice and mice bearing FR+ tumor xenografts, either with or without EC17. 5-8 million CAR-T cells (as indicated in FIGS. 42 and 43) were administered (i.v.) into naïve mice without tumors and mice bearing FR+ tumor xenografts (80-200 mm3). 500 nmol/kg EC17 was dosed 4 hours before and three times per week post CAR-T administration, if desired. Mice were monitored for body weight changes and CAR-T cell count in blood circulation; some mice were also euthanized weekly to evaluate organs. […] CAR-T cell count in blood samples was also compared to evaluate CAR-T proliferation. […] Since the enlargement of spleen size is another indicator for CAR-T proliferation in vivo, spleen size was also measured as shown in FIG. 43B.
For FIG. 42, the MDA-MB-231 s.c. model was used. For FIG. 43A, the HEK-FRa s.c. xenograft model was used. For FIG. 43B, the MDA-MB-231 s.c. model was used.

MDA-MB-231 tumors [2] = test: IFN-γ in blood versus EC17 dose level and presence of tumor (Example 24); assay type: in vivo, mice; conditions: 10 days after CAR-T injection, EC17 three times per week
Method: CAR-T cells were injected into naïve mice (8 million per mouse) and mice bearing MDA-MB-231 tumors (5 million per mouse). Various levels of EC17 were administrated three times per week. IFN-γ in blood was measured 10 days after CAR-T cell injection.

MDA-MB-231 cells = test: Bridge dose versus lysis and IFNγ release in MDA-MB-231 cell cultures (Example 43); assay type: cell-based, human; conditions: 0.001 to 100,000 nM, Effector:Tumor 5:1
Method: FR positive cancer cell lines (e.g. KB or MDA-MB-231 cells) were seeded at density of 10^4 cells/100 μl media into 96 well plates and grown overnight. Anti-fluorescein CAR T cells were added to each well in the absence or presence of bridge molecules. After co-incubation for 6-24 hours, plates were centrifuged at 350×g for 10 min to remove debris and supernatants were analyzed for lactate dehydrogenase release (cell death analysis) using Pierce™ LDH cytotoxicity assay kit (Thermo Fisher Scientific, MA) and interferon γ (IFNγ) levels using human IFNγ ELISA kit (Biolegend, CA), while pellets were either evaluated for CAR T cell activation by staining with anti-human CD69 APC (Clone: FN50, Biolegend, CA) or examined for CAR T cell proliferation by culturing for 5 days in TexMACS™ medium (Miltenyi Biotech Inc, CA) containing 1% penicillin and streptomycin sulfate and quantitating by flow cytometry using the intrinsic GFP fluorescence and staining with anti-human CD3 APC antibody (Clone:HIT3a, Biolegend, CA).
Although a highly elevated and prolonged CRS can often lead to patient death, some level of CRS has been viewed as desirable, since patients displaying no evidence of CRS are not commonly observed to respond to CAR T cell therapies. […]

SMILES | recovery (MDA-MB-231 tumors [1]; 0.06 μmol/kg) | recovery (MDA-MB-231 tumors [1]; 6 μmol/kg) | time to near normal range of IFN-γ (MDA-MB-231 tumors [1]; 60 μmol/kg) | time to normal range of IL-2, TNF-α, IL-3, GM-CSF, IL-6 (MDA-MB-231 tumors [1]; 60 μmol/kg) | human cytokine levels in blood (MDA-MB-231 tumors [1]; 60 μmol/kg, 7 hours and 27 hours post rescue) | sCRS severity (MDA-MB-231 tumors [1]; 0.06, 0.6, 6 μmol/kg, ~8.3 million CAR-T) | sCRS grade (MDA-MB-231 tumors [1]; 7 hours after 60 μmol/kg rescue, 0-5 grading scale) | sCRS grade (MDA-MB-231 tumors [1]; 27 hours after 60 μmol/kg rescue) | lung edema (MDA-MB-231 tumors [1]; 27 hours after rescue, 60 μmol/kg) | median effective dose (human cytokine levels in mouse blood) (MDA-MB-231 tumors [1]; IL-2, TNF-α, IFN-γ etc.) | earliest cytokine response post rescue (MDA-MB-231 tumors [1]; key cytokines) | effect on anti-tumor activity of EC17/CAR-T therapy (MDA-MB-231 tumors [1]; one dose 6 μmol/kg) | effect on CAR-T anti-tumor activity (MDA-MB-231 tumors [1]; one dose 60 μmol/kg) | spleen size (FR+ MDA-MB-231 tumors; 500 nmol/kg three times per week) | body weight (FR+ MDA-MB-231 tumors; EC17 three times per week) | cytokine production (IFN-γ in blood) (MDA-MB-231 tumors [2]) | bridge dose with little effect on tumor cell lysis (MDA-MB-231 cells) | tumor growth (MDA-MB-231 tumors [1]; 500 nmol/kg SIW, ~10.4 million FITC-CAR-T)
O=C([O-])c1ccccc1-c1c2ccc(=O)cc-2oc2cc([O-])ccc12.[Na+].[Na+] [sodium fluorescein] | slowest recovery | recovered the fastest | 27 h | 7 h | much lower than those in un-rescued mice | dose-dependent reduction of sCRS severity | low grade 3 | 2 grade | lung edema was improved | about 0.6 μmol/kg | 3 h | didn't affect the anti-tumor activity | did not interfere with CAR-T anti-tumor activity in vivo | – | – | – | – | –
Nc1nc2ncc(CNc3ccc(C(=O)NC(CCC(=O)NCCNC(=S)Nc4ccc(-c5c6ccc(=O)cc-6oc6cc(O)ccc56)c(C(=O)O)c4)C(=O)O)cc3)nc2c(=O)[nH]1 (stereo not drawn) [EC17, FITC-Folate] | – | – | – | – | – | – | – | – | – | – | – | – | – | enlarged spleens | body weight loss in the first 10 days | dependent on both the bridge (EC17) dose level and the presence of the tumor | below 0.01 nM | started to shrink and disappeared eventually
